Measured values taken from PubChem BioAssay AID328 (DTP/NCI, 2004).
Values joined by “and” are separate entries in the source; they are usually repeats but may differ in a detail not shown here. Equal values may be shown once. Inconclusive results and toxic doses are left out. How the source made its calls: active means survival T/C of 150% or more; inactive means T/C below 125% in these data.

System: BDF1 mice, P388 leukemia ip, median survival T/C
Assay: NCI In Vivo Anticancer Drug Screen. Data for tumor model P388 Leukemia (intraperitoneal) in B6D2F1 (BDF1) mice
Details: endpoint: median survival time, higher = longer survival
Procedure, shortened: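 Reported as T/C, where T is the survival measurement in dosed animals and C the same measurement in vehicle controls.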

[1] = dose: 100.0 mg/kg/injection, schedule: Q01DX009 (ip), vehicle: saline with Tween-80
[2] = dose: 100.0 mg/kg/injection, schedule: Q04DX003 (ip), vehicle: saline with Tween-80
[3] = dose: 200.0 mg/kg/injection, schedule: Q01DX009 (ip), vehicle: saline with Tween-80
[4] = dose: 200.0 mg/kg/injection, schedule: Q04DX003 (ip), vehicle: saline with Tween-80
[5] = dose: 400.0 mg/kg/injection, schedule: Q04DX003 (ip), vehicle: saline with Tween-80
[6] = dose: 50.0 mg/kg/injection, schedule: Q01DX009 (ip), vehicle: saline with Tween-80
[7] = dose: 25.0 mg/kg/injection, schedule: Q01DX009 (ip), vehicle: saline with Tween-80
[8] = dose: 400.0 mg/kg/injection, schedule: Q01DX009 (ip), vehicle: saline with Tween-80
[9] = dose: 100.0 mg/kg/injection, schedule: Q04DX003 (ip), vehicle: saline
[10] = dose: 200.0 mg/kg/injection, schedule: Q04DX003 (ip), vehicle: saline
[11] = dose: 400.0 mg/kg/injection, schedule: Q04DX003 (ip), vehicle: saline
[12] = dose: 100.0 mg/kg/injection, schedule: Q01DX009 (ip), vehicle: saline
[13] = dose: 200.0 mg/kg/injection, schedule: Q01DX009 (ip), vehicle: saline
[14] = dose: 400.0 mg/kg/injection, schedule: Q01DX009 (ip), vehicle: saline
[15] = dose: 50.0 mg/kg/injection, schedule: Q04DX003 (ip), vehicle: saline
[16] = dose: 50.0 mg/kg/injection, schedule: Q01DX009 (ip), vehicle: saline

Measured: T/C

COc1cc2c3c(c4ccc(O)cc4c2cc1OC)[C@@H](O)[C@@H]1CCCN1C3
inactive: dose: 2.5 mg/kg/injection, schedule: Q01DX009 (ip), vehicle: water 115 % of control | dose: 5.0 mg/kg/injection, schedule: Q01DX009 (ip), vehicle: water 123 % of control

CC(=O)N1C(=O)N(Cl)C(=O)C1(c1ccc(Cl)cc1)c1ccc(Cl)cc1
inactive: dose: 60.0 mg/kg/injection, schedule: Q01DX009 (ip), vehicle: saline with Tween-80 116 % of control | [1] 91 % of control | [2] 113 % of control | [3] 113 % of control | [4] 109 % of control | [5] 122 % of control

Cc1cc(C(=O)NN)nn1CCO
inactive: dose: 87.5 mg/kg/injection, schedule: Q01DX009 (ip), vehicle: saline with Tween-80 89 % of control | dose: 175.0 mg/kg/injection, schedule: Q01DX009 (ip), vehicle: saline with Tween-80 88 % of control | dose: 350.0 mg/kg/injection, schedule: Q01DX009 (ip), vehicle: saline with Tween-80 114 % of control

CN(C)c1ccc(C=Nc2ccc(/C=C\c3ccnc4ccccc34)cc2)cc1
inactive: [6] 107 % of control | [1] 117 % of control | [3] 100 % of control

CC(=O)NCc1ccc([N+](=O)[O-])cc1
inactive: [7] 103 % of control | dose: 25.0 mg/kg/injection, schedule: Q04DX003 (ip), vehicle: saline with Tween-80 111 % of control | [6] 103 % of control | dose: 50.0 mg/kg/injection, schedule: Q04DX003 (ip), vehicle: saline with Tween-80 115 % of control | [1] 100 % of control | [2] 111 % of control | [3] 119 % of control | [4] 109 % of control | [8] 95 % of control | [5] 118 % of control

CCC(C)SC1=NC=NC2=NC=NC21 (configuration not stated)
inactive: [6] 100 % of control | [1] 96 % of control | [2] 91 % of control | [4] 100 % of control

O=C1CCC2N1CCC1CCCCN12 (configuration not stated)
inactive: dose: 6.25 mg/kg/injection, schedule: Q01DX009 (ip), vehicle: water 98 % of control | dose: 12.5 mg/kg/injection, schedule: Q01DX009 (ip), vehicle: water 100 % of control | dose: 25.0 mg/kg/injection, schedule: Q01DX009 (ip), vehicle: water 86 % of control | dose: 25.0 mg/kg/injection, schedule: Q04DX003 (ip), vehicle: water 107 % of control | dose: 50.0 mg/kg/injection, schedule: Q01DX009 (ip), vehicle: water 94 % of control | dose: 50.0 mg/kg/injection, schedule: Q04DX003 (ip), vehicle: water 118 % of control | dose: 100.0 mg/kg/injection, schedule: Q01DX009 (ip), vehicle: water 91 % of control | dose: 100.0 mg/kg/injection, schedule: Q04DX003 (ip), vehicle: water 107 % of control | dose: 200.0 mg/kg/injection, schedule: Q04DX003 (ip), vehicle: water 109 % of control

C[C@@H]1C[C@@]2(C)[C@@H](CC[C@@H]3[C@@H]2CC[C@]2(C)[C@@H](O)CC[C@@H]32)C[C@@H]1O
inactive: dose: 220.0 mg/kg/injection, schedule: Q01DX010 (sc), vehicle: steriod suspending solution 100 % of control | dose: 440.0 mg/kg/injection, schedule: Q01DX010 (sc), vehicle: steriod suspending solution 115 % of control

CCC(=O)/C=C/c1ccc(Cl)cc1
inactive: [6] 110 % of control | [1] 109 % of control | [3] 107 % of control

CC(=N\O)/C(C)=N/O.CC(=N\O)/C(C)=N/O.[Pd]
inactive: dose: 1.57 mg/kg/injection, schedule: Q01DX009 (ip), vehicle: Klucel (hydroxypropylcellulose) (HPC) 100 % of control | dose: 3.13 mg/kg/injection, schedule: Q01DX009 (ip), vehicle: Klucel (hydroxypropylcellulose) (HPC) 100 % of control | dose: 6.25 mg/kg/injection, schedule: Q01DX009 (ip), vehicle: Klucel (hydroxypropylcellulose) (HPC) 100 % of control

CC1CSCC(C)O1 (configuration not stated)
inactive: [6] 90 % of control | [1] 100 % of control | [9] 100 % of control | [3] 104 % of control | [10] 100 % of control | [11] 104 % of control

CCC(CC)C(O)C(C)C(C)O (configuration not stated)
inactive: [2] 100 % of control | [4] 100 % of control | [5] 100 % of control

C#CC1(OCC2CO2)CCCCC1 (configuration not stated)
inactive: [12] 92 % of control | [9] 110 % of control | [13] 103 % of control | [10] 110 % of control | [14] 92 % of control

c1ccc(-c2c[n+]3cc4ccccc4cc3cn2)cc1
inactive: [12] 95 % of control | [9] 100 % of control | [13] 91 % of control | [10] 113 % of control | [14] 91 % of control | [11] 95 % of control

CCS(=O)(=O)OC1CCCCCCC1NC(=O)c1ccccc1 (configuration not stated)
inactive: [7] 95 % of control | [6] 109 % of control | [1] 104 % of control

OCCOCCN1CCN(CCCN2c3ccccc3Sc3ccc(C(F)(F)F)cc32)CC1
inactive: dose: 1.56 mg/kg/injection, schedule: Q01DX009 (ip), vehicle: saline 109 % of control | dose: 12.5 mg/kg/injection, schedule: Q04DX003 (ip), vehicle: saline 113 % of control and 120 % of control | [15] 117 % of control

CN=Cc1ccc([N+](=O)[O-])cc1
inactive: dose: 100.0 mg/kg/injection, schedule: Q01DX001 (ip), vehicle: Klucel (hydroxypropylcellulose) (HPC) 113 % of control | dose: 200.0 mg/kg/injection, schedule: Q01DX001 (ip), vehicle: Klucel (hydroxypropylcellulose) (HPC) 104 % of control

O=C(O)CCCl
inactive: [15] 104 % of control | [12] 91 % of control | [9] 104 % of control | [13] 95 % of control | [10] 100 % of control

NNC(=O)NO
inactive: dose: 25.0 mg/kg/injection, schedule: Q04DX003 (ip), vehicle: saline 95 % of control | [15] 104 % of control | [9] 100 % of control

C=CC(=O)NCCC(=O)O
inactive: [16] 100 % of control | [12] 90 % of control | [13] 94 % of control

O=C(CSc1cc(-c2ccc(Cl)cc2)s[s+]1)c1ccc(Cl)cc1
inactive: dose: 12.5 mg/kg/injection, schedule: Q01DX009 (ip), vehicle: saline 109 % of control | dose: 25.0 mg/kg/injection, schedule: Q01DX009 (ip), vehicle: saline 89 % of control | [16] 89 % of control | [15] 97 % of control | [12] 101 % of control | [9] 90 % of control and 100 % of control and 105 % of control | [13] 107 % of control | [10] 97 % of control and 111 % of control | dose: 300.0 mg/kg/injection, schedule: Q04DX003 (ip), vehicle: saline 111 % of control | [11] 103 % of control

COC(=O)C(CC(=O)c1ccccc1)NCc1ccccc1 (configuration not stated)
inactive: dose: 100.0 mg/kg/injection, schedule: Q01DX001 (ip), vehicle: saline with Tween-80 100 % of control | dose: 200.0 mg/kg/injection, schedule: Q01DX001 (ip), vehicle: saline with Tween-80 95 % of control | dose: 400.0 mg/kg/injection, schedule: Q01DX001 (ip), vehicle: saline with Tween-80 100 % of control

COc1ccc(C2NC(=S)NC3=C2CCCC3)cc1 (configuration not stated)
inactive: [6] 96 % of control | [1] 107 % of control | [3] 98 % of control

O=C(/C=C/c1cccc(Br)c1)NCC(O)CO (configuration not stated)
inactive: [3] 95 % of control | [8] 87 % of control

CCCCCCC1CCC(N)CC1 (configuration not stated)
inactive: dose: 12.5 mg/kg/injection, schedule: Q01DX009 (ip), vehicle: Klucel (hydroxypropylcellulose) (HPC) 97 % of control | dose: 25.0 mg/kg/injection, schedule: Q01DX009 (ip), vehicle: Klucel (hydroxypropylcellulose) (HPC) 101 % of control

Nc1ccc(OCc2ccc(S(=O)(=O)F)c(Cl)c2)c(Cl)c1
inactive: dose: 100.0 mg/kg/injection, schedule: Q01DX001 (ip), vehicle: saline 103 % of control | dose: 200.0 mg/kg/injection, schedule: Q01DX001 (ip), vehicle: saline 100 % of control | dose: 400.0 mg/kg/injection, schedule: Q01DX001 (ip), vehicle: saline 92 % of control

c1cc[c]([Pb]([c]2ccccc2)[c]2ccccc2)cc1.c1cc[c]([Pb]([c]2ccccc2)[c]2ccccc2)cc1
inactive: dose: 3.13 mg/kg/injection, schedule: Q01DX009 (ip), vehicle: saline with Tween-80 109 % of control | dose: 6.25 mg/kg/injection, schedule: Q01DX009 (ip), vehicle: saline with Tween-80 104 % of control | dose: 12.5 mg/kg/injection, schedule: Q01DX009 (ip), vehicle: saline with Tween-80 101 % of control | [7] 104 % of control

C(=Nc1ccccc1)c1ccc(C=Nc2ccccc2)cc1
inactive: [6] 110 % of control | [1] 105 % of control | [2] 104 % of control | [3] 100 % of control | [4] 109 % of control | [5] 100 % of control
